Experimental data published in patent US11078175B2, “Substituted dihydrobenzofuran compounds and their use as synergists” (ENDURA S.P.A., priority 2015, dated 2021).

Assays:
[1] = molecular target: T1, FE4 Myzus persicae esterases (Myzus persicae, UniProt P35502); assay: Inhibition of esterase enzymes, 4-nitrophenyl acetate substrate with purified FE4; format: biochemical; details: 2.5 μL of 10 mM compound in acetone added to 50 μL, 10 min incubation, substrate 4-nitrophenyl acetate 0.8 mM final, acetone-only control
T1 construct: would be utilised for the purified esterases from aphids; from tissue; host or cells: aphids (Myzus persicae)
T1 sequence (P35502 24-564): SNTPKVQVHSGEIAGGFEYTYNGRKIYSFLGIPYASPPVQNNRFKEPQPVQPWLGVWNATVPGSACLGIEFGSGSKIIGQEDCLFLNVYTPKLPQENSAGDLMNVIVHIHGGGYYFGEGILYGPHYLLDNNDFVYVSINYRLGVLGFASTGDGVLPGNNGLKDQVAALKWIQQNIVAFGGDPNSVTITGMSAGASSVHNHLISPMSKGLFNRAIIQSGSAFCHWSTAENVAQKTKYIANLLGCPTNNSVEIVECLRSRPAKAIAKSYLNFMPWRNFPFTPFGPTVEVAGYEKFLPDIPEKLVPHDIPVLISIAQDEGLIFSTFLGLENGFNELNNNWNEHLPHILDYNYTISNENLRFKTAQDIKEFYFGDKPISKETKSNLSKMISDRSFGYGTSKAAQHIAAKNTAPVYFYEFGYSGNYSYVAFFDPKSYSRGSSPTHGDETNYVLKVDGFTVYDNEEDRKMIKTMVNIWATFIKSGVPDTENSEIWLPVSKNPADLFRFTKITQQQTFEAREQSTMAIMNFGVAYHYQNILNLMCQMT
Experimental: It was envisaged, therefore, that the ‘esterase intereference assay’ (Khot et al., 2008) would be utilised for the purified esterases from aphids. Various esterase substrates were assessed to find one suitable of monitoring inhibition in an insect homogenate. The Myzus persicae resistance associated esterase, FE4, was used.
From the literature (Philippou et al., 2013) it is known that 1-naphthyl acetate is not suitable for this assay. Instead, 4-nitrophenyl acetate was used. A 10 mM pNA stock was prepared in acetone and added to 0.02 M phosphate buffer pH 7.0 (final concentration 2 mM). The comparison was made with 6 PBO analogues of variable efficacy.
For the assay 10 μL of purified FE4 was diluted to a total volume of 50 μL by the addition of 0.02 M phosphate buffer, pH 7.0 in individual wells of a microplate (maxisorb, NUNC). To each well, 2.5 μL of 10 mM of the compound of Example 1 and of Example 2 in acetone was added and incubated for 10 mins, with acetone only used as a control. Following incubation, 100 μL of 0.02 M phosphate buffer, pH 7.0 and 100 μL of 2 mM 4-nitrophenyl acetate was added (final volume in well 250 μL, final substrate concentration 0.8 mM). Enzyme activity was read at 405 nm in a Spectramax Tmax for 5 min, with readings taken every 5 secs. The rate (mOD min^−1) was calculated by the integrated software, Softmax Pro v.5.4.

Bemisia tabaci CYP6CM1 = details: recombinant CYP6CM1; 3 μL of 10 mM compound stock in acetone added to 50 μL enzyme; 10 min incubation at room temperature; substrate 7-ethoxycoumarin; acetone-only control
Experimental: Ability of the compounds of the invention to inhibit oxidative enzymes (P450), a major mechanism conferring resistance to xenobiotics, was measured using recombinant enzymes corresponding to CYPCM1 from Bemisia tabaci.
Diluted recombinant enzyme (50 μL) was mixed with 3 μL of a.m compounds stock solutions, with acetone only used as a control. After 10 min incubation at room temperature, 80 μL of 0.125 mM 7-ethoxycoumarin was added, followed by 10 μL 9.6 mM NADPH (nicotinamide adenine dinucleotide phosphate) in 0.1 M sodium phosphate, pH 7.8, and 0-deethylation activity monitored as above. A PBO solution (10 mM) was prepared in the same way as a comparison.

Compound	remaining activity at 10000 µM (stock) [1] [%]	% activity remaining (Bemisia tabaci CYP6CM1) [%]
CCCCOCCOCCOCc1cc(CCC)cc2c1OCC2 [Compound of Example 1, 5-propyl-7-[[2-(2-Butoxyethoxy)ethoxy]methyl]-2,3-dihydrobenzo furan]	33.2	38.47
CCCCCCc1cc2c(c(COCCOCCOCCCC)c1)OCC2 [Compound of Example 2, 5-n-hexyl-7-[[2-(2-Butoxyethoxy)ethoxy]methyl]-2,3-dihydrobenzo furan]	40.6	86.22
